Experiment [1] relates to RMS772 cells expressing vector only. Kind of experiment: Percent cell survival of transduced RMS772 cell lines with PD173074. The format is cell-based. Particulars: Mus musculus; RMS772 vector control, 48 hours of treatment.
For experiment [2], the system named is RMS772 cells expressing FGFR4 N535K (K535). Described as above. The format is cell-based. Particulars: Mus musculus; RMS772 K535, 48 hours of treatment.
The test system of experiment [3] is RD. Put plainly: IC50 of PD173074 for killing human RMS cell lines (RT-CES cell growth monitoring). Particulars: RD cell line. The format is cell-based. The protocol: (§1) Briefly human RMS cell lines were seeded in the 96 well plate device at 5000-20,000 cells per well. […] Cell growth was monitored and IC50 values were calculated by Cell Office® (ACEA Biosciences, San Diego, Calif.).
(§2) Expression level of FGFR4 mRNA for each cell line was determined by real-time PCR (FIG. 10).

Experiment [4] concerns RH36. The experiment is described as above. Particulars: RH36 cell line. The format is cell-based. The protocol: as §1, §2
The test system of experiment [5] is RH28. Described as above. The format is cell-based. Particulars: RH28 cell line. The protocol: as §1, §2
Experiment [6] deals with RH41. The experiment is described as above. The format is cell-based. Particulars: RH41 cell line. The protocol: as §1, §2
Experiment [7] has as its system RH30. The description is as above. The format is cell-based. Particulars: RH30 cell line. As to the method:
as §1, §2

In experiment [8] the test system is RMS772 cells expressing FGFR4 N535K (K535) or V550E (E550). Kind of experiment: Activated caspase 3 positive cells in RMS772 transductants. The format is cell-based, mouse. Particulars: both mutant RMS772 cell lines, 20 μM, 24 hour treatment.
The subject of experiment [9] is RMS119 cells expressing FGFR4 N535K or V550E. Kind of experiment: Cell cycle assay (BrdU/7-AAD flow cytometry), apoptosis as subG1 fraction. The format is cell-based, mouse. Particulars: 5 uM for 24 hours. The protocol:
(§3) The effect of […] in RMS119 and RMS772 transfectants was determined using cell cycle assays. […] Cells were then pulsed with BrdU for 40 minutes, and then fixed, permeabilized, and treated with DNase, and followed by staining with mAb (BD Biosciences, Franklin Lakes, N.J.) against BrdU and with 7-AAD (BD Biosciences, Franklin Lakes, N.J.) respectively. Flow cytometry was used to analyze the cell cycle parameters.
(§4) Apoptosis was assessed by determining the fraction of cells in the subG1 stage of the cell cycle. There were no differences in cell cycle parameters of RMS772 cells expressing TK domain mutants cultured in medium containing 10% FBS compared to vector or wild type FGFR4 (FIG. 9A).
In general terms: In flow cytometry, cells or beads pass a laser one at a time.

For experiment [10], the system named is RMS772 cells expressing FGFR4 TK domain mutations N535K or V550E. The experiment is described as above. Particulars: 5 uM for 24 hours. The format is cell-based, mouse. The protocol:
as §3, §4

Experiment [11] relates to RMS772 cells expressing FGFR4 V550E (E550). Kind of experiment: Percent cell survival of transduced RMS772 cell lines with PD173074. The format is cell-based. Particulars: Mus musculus; RMS772 E550, 48 hours of treatment.
Experiment [12] relates to RMS772 cells expressing wild type FGFR4. The experiment is described as above. Particulars: Mus musculus; RMS772 wild type FGFR4, 48 hours of treatment. The format is cell-based.
Experiment [13] concerns RH30 TRB H11.5 cells. Put plainly: In vitro growth of RH30 TRB H11.5 cells with or without dox. Particulars: RH30 TRB H11.5, 25 nM dox, 13 days, P=0.0021. The format is cell-based, human. As to the method: FIG. 13B is a plot of RH30 TRB H11.5 cell growth with or without 25 nM dox for 120 hours.
FIG. 13C is a plot of RH30TRB H11.5 cell number 13 days after treatment with or without 25 nM dox.
Human rhabdomyosarcoma cell line RH30 was retrovirally transduced with vectors containing tetracycline repressor protein and ecotropic receptor. A tetracycline inducible shRNA construct targeting FGFR4 ([…], SEQ ID NO: 44) was used to transduce these RH30 cells as described previously (Ngo et al. Nature 441:106-110, 2006). Transduced RH30 cells were then subcloned. The subclone with the highest FGFR4 knockdown in the presence of doxycycline (dox) was used for in vitro and in vivo studies. The subclone chosen was designated as RH30 TRB H11.5 and was further transduced with a retroviral vector encoding luciferase. RH30 TRB H11.5 cells treated with or without 25 ng/ml doxycycline for 48 hours were harvested for Western blot for FGFR4 expression.

Experiment [14] has as its system RMS772 cells expressing FGFR4 N535K or V550E. Put plainly: Relative cell number of RMS772 transductants treated with imatinib. The format is cell-based, mouse. Particulars: 10 μM, 24 hours. The protocol: To determine the sensitivity of FGFR4 mutants (N535K and V550E) to imatinib, RMS772 transductants were treated with imatinib (ranging from 0 μM to 40 μM). After 24 hours, relative cell number (normalized with control) was plotted against imatinib dose.

Where [15] appears, read: 24 hours, read-out: IC50 for killing, 24 hours.
The mark [16] stands for this setting: 48 hours, read-out: IC50 for killing, 48 hours.
The mark [17] stands for this setting: 72 hours, read-out: IC50 for killing, 72 hours.

Entries after “also recorded” stand apart in the source; their conditions may differ. Where two headings read alike, the source gives them in different places.

This note sets out measurements from US8216783B2, “Over-expression and mutation of a tyrosine kinase receptor FGFR4 in tumors” (The United States of America, as represented by the …, priority 2008, dated 2012).

In the case of `CCN(CC)CCCCNc1ncc2cc(-c3cc(OC)cc(OC)c3)c(NC(=O)NC(C)(C)C)nc2n1` [PD173074], the IC50 is 12.7 µM in experiment [1]; 8.2 µM in experiment [2]; 57.1 µM in experiment [3] (setting [15]); 29.7 µM in experiment [3] (setting [16]); 20.2 µM in experiment [3] (setting [17]); 25.9 µM in experiment [4] (setting [15]). Also, the IC50 in [4] (setting [16]) came out at 17.6 µM; in experiment [4] (setting [17]), 20.2 µM; in experiment [5] (setting [15]), 2.22 µM; in experiment [5] (setting [16]), 0.66 µM; in experiment [5] (setting [17]), 0.5 µM; in experiment [6] (setting [15]), 2.55 µM. In addition, the IC50 amounted to 0.96 µM in experiment [6] (setting [16]); 0.76 µM in experiment [6] (setting [17]); 10 µM in experiment [7] (setting [15]); 8.32 µM in [7] (setting [16]); 8.11 µM in experiment [7] (setting [17]); 5.9 µM in experiment [11]. This molecule registered an IC50 in [12] of 11.8 µM. Moreover, the “activated caspase 3 (cells positive, normalized to vector only)” value in experiment [8] is on record as “increased activated caspase 3”. The “apoptosis / cell cycle effect of treatment” value in experiment [9] is “not affected”. For the same molecule, in experiment [10], the “apoptosis (SubG1 fraction) compared with cells transfected with vector or wild type FGFR4” value is listed as “increase in apoptosis; also recorded: increased SubG1 fraction”.

Consider `C[C@H]1c2cccc(O)c2C(=O)C2=C(O)[C@]3(O)C(=O)C(C(N)=O)=C(O)[C@@H](N(C)C)[C@@H]3[C@@H](O)[C@@H]21` [dox, doxycycline], for which the “reduction in growth after prolonged culture” value in [13] came out at 41%.

For `Cc1ccc(NC(=O)c2ccc(CN3CCN(C)CC3)cc2)cc1Nc1nccc(-c2cccnc2)n1` [imatinib, 4-[(4-methylpiperazin-1-yl)methyl]-N-[4-methyl-3-[(4-pyridin-3-ylpyrimidin-2-yl)amino]-phenyl]-benzamide], the “sensitivity (relative cell number) of FGFR4 mutants versus wild type FGFR4 or control cells” value in experiment [14] is reported as “more sensitive”.

In general, IC50 refers to the concentration needed to halve the response being measured.
